Results: patent US20050234248A1, “Method of producing preparations rich in tocotrienol” (Vis-Vitalis Lizenz- Und Handels Gmbh, priority 2002, published 2005)

Test system: human serum loaded with p-benzoquinone (quinhydron radicals)
Experiment: Antioxidant capacity: human serum loaded with p-benzoquinone, colorimetric determination of p-dihydroquinone at 500 nm
Conditions: for Antiox-Titer: human serum, p-benzoquinone load, extinction at 500 nm/60 sec; for 1 mg of tocotrienol effect in μg radicals/ml · sec.: per 1 mg of tocotrienol; for Radicals μg/ml · sec: radicals inhibited, converted from extinction
Source text: In this examining method, human serum is subjected to the oxidative stress of a defined amount of para-benzoquinone. By adding defined amounts of the antioxidants to be tested (natural tocotrienol mixture of wheat bran oil, wheat germ oil, tocopherol acetat, D-alpha-tocopherol), the antioxidant load bearing capacity of the test sample is quantitated by calorimetric determination of the para-dihydroquinone that has been reduced from para-benzoquinone. […] Human donor blood is recovered from the vein without any additives and centrifuged at 800-1000 g after having been left standing for 1 h in the refrigerator (approximately +4° C.-+7° C.). The separated serum fractions are removed and pooled. The serum can be stored at -22° C. for about 14 days or immediately be used for the required measurements. To determine the antioxidant capacity of an antioxidant, the serum is radically loaded in stages. p-Benzoquinone was used for radical formation. In a physiological environment (pH=slightly alkaline), this substance is converted into the relatively stable radical anion of the quinhydrone system. In doing so, one hydrogen atom (1 proton/1 electron) of p-benzoquinone is taken up. The further reaction to the stable end product p-dihydroquinone takes place inversely proportionally, at pH 6.9-7.4 within minutes, and primarily linearly to the antioxidant content (reducing agent) in the reaction environment. Thus, the conditions for the applicability of Lambert-Beer's law have been met for determining the end product (dihydro-quinone) as a typically coloured substance. The comparatively stable radical anion (quinhydrone) is converted into the dihydroquinone in a second reduction step by taking up a further electrone (hydrogen from the available antioxidants). […] The calorimetric determination of the amount of end product is effected at λ=500 nm. […] With a linear extinction increase-and a linearly growing consumption of the antioxidant-active substance, the reacted portions can be precisely calculated from the stoichiometric reaction conditions. According to Michaelis/[…] and Pauling, respectively (Holleman-Wiberg; Lehrbuch der Anorganischen Chemie, de Gruyter-Verlag (1995)), the reaction intensity up to the dihydroquinone will depend on the ratio of the concentrations of oxidised to reduced. I.e., the higher the reduction (antioxidant) supply, the more the reaction will be inhibited, the content of the dihydroquinone forming will decrease. Thus, this reaction is excellently suited to be used in redox systems for finely dosed quantitative determinations for substances that are reducingly active. In three parallel measurement series, serum samples ([…] each) of the pool with p-benzoquinone are loaded in three stages (10, 20 and 30 μg). […] In the calculated reaction quantities, the mean of the 60 second value corresponds to the defined titer (=one third reaction). This value precisely results from the graphic illustration of the mean values as extinction curve. All further tests with antioxidant addition are comparatively related to this defined calibration value of the serum pool without antioxidant addition (i.e., with an increasing supply of antioxidants in the serum, the extinction must drop for dihydroquinone). Three parallel measurement series of serum samples were carried out under addition of 500 μg/ml of preparation according to the invention to determine the antioxidant capacity of the tocotrienol-rich wheat bran oils according to the invention. […] Referring to the curve of the extinction values of the comparative serum without additions and the stoichiometric reaction conditions applied (serum determination/concentration of p-benzoquinone/amount per ml of serum dilution), the conversion factor extinction to radical inhibition will result from this calibration system. […] For a more encompassing evaluation of the product quality, the comparison with other antioxidants is required. […]

Compound: Cc1c(C)c2c(c(C)c1O)CC[C@@](C)(CCC[C@H](C)CCC[C@H](C)CCCC(C)C)O2 [D-alpha-Tocopherol, D-alpha-tocopherol]
- Antiox-Titer: 0.06
- 1 mg of tocotrienol effect in μg radicals/ml · sec.: 0.00674 μg radicals/ml · sec.
- Radicals μg/ml · sec: 1.6848 μg/ml · sec

Compound: CC(=O)Oc1c(C)c(C)c2c(c1C)CCC(C)(CCC[C@H](C)CCC[C@H](C)CCCC(C)C)O2 (stereo partly drawn) [Tocopherol acetate, D,L-alpha-tocopherol acetate]
- Antiox-Titer: 0.125
- 1 mg of tocotrienol effect in μg radicals/ml · sec.: 0.014 μg radicals/ml · sec.
- Radicals μg/ml · sec: 3.51 μg/ml · sec
